Source: patent US8592456B2 (4SC Discovery GmbH, priority 2011, dated 2013)
Read-outs that look alike come from different tables or passages of the source.

Test system: PBMC (T cell proliferation)
Test: T cell proliferation assay, PHA-stimulated human PBMC (BrdU ELISA)
Assay type: cell-based
Conditions: 48 hours, BrdU
Method in brief: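 Healthy-donor human PBMC, Ficoll-isolated, seeded 1×10^5 cells/well in RPMI1640 with 10% dialyzed FCS, stimulated with 2 μg/ml PHA alongside test compound. Proliferation read after 48 hours by BrdU ELISA.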

[1] = PHA-stimulated human PBMC, column D, activity classes 1-4, read-out: IC50 (Tcell proliferation)
[2] = human PBMC, 2 μg/ml PHA, read-out: D: IC50 (Tcell proliferation)

## Cc1nnc(-c2c(-c3c(F)cccc3Cl)noc2-c2cnn(-c3ccccc3F)c2C(F)(F)F)s1 [Example I-12, 3-(2-chloro-6-fluorophenyl)-5-(1-(2-fluorophenyl)-5-(trifluoromethyl)-1H-pyrazol-4-yl)-4-(5-methyl-1,3,4-thiadiazol-2-yl)isoxazole]
[1]
  IC50: 0.1 to 1 µM

## O=C(c1c(-c2c(F)cccc2Cl)noc1-c1cnn(-c2ccccc2F)c1C(F)(F)F)N1CCCCC1 [Example 21, (3-(2-chloro-6-fluorophenyl)-5-(1-(2-fluorophenyl)-5-(trifluoromethyl)-1H-pyrazol-4-yl)isoxazol-4-yl)(piperidin-1-yl)methanone]
[2]
  IC50: 0.01 to 0.1 µM

## O=C(c1c(-c2c(F)cccc2Cl)noc1-c1cnn(-c2ccccc2F)c1C(F)(F)F)N1CCCO1 [Example B-52, (3-(2-chloro-6-fluorophenyl)-5-(1-(2-fluorophenyl)-5-(trifluoromethyl)-1H-pyrazol-4-yl)isoxazol-4-yl)(isoxazolidin-2-yl)methanone]
[2]
  IC50: 1 to 10 µM

## Cc1nnc(-c2c(-c3c(F)cccc3Cl)noc2-c2cnn(-c3ccccc3Cl)c2C(F)(F)F)s1 [IB-20, 3-(2-chloro-6-fluorophenyl)-5-(1-(2-chlorophenyl)-5-(trifluoromethyl)-1H-pyrazol-4-yl)-4-(5-methyl-1,3,4-thiadiazol-2-yl)isoxazole]
[1]
  IC50: 0.1 to 1 µM

## COC(=O)c1c(-c2c(F)cccc2Cl)noc1-c1cnn(-c2cccc(F)c2)c1C(F)(F)F [Example 5, methyl 3-(2-chloro-6-fluorophenyl)-5-(1-(3-fluorophenyl)-5-(trifluoromethyl)-1H-pyrazol-4-yl)isoxazole-4-carboxylate]
[2]
  IC50: < 0.01 µM

## CCOC(=O)c1c(-c2ccncc2F)noc1-c1cnn(-c2ccccn2)c1C(F)(F)F [Example B-8, ethyl 3-(3-fluoropyridin-4-yl)-5-(1-(pyridin-2-yl)-5-(trifluoromethyl)-1H-pyrazol-4-yl)isoxazole-4-carboxylate]
[2]
  IC50: 1 to 10 µM

## CNC(=O)c1c(-c2c(F)cccc2Cl)noc1-c1cnn(-c2ccc(F)cc2F)c1C(F)(F)F [Example 57, 3-(2-chloro-6-fluorophenyl)-5-(1-(2,4-difluorophenyl)-5-(trifluoromethyl)-1H-pyrazol-4-yl)-N-methylisoxazole-4-carboxamide]
[2]
  IC50: 1 to 10 µM

## CCOC(=O)c1c(-c2ccc(Cl)cc2)noc1-c1cnn(-c2cccc(Cl)c2)c1C(F)(F)F [Example 77, ethyl 3-(4-chlorophenyl)-5-(1-(3-chlorophenyl)-5-(trifluoromethyl)-1H-pyrazol-4-yl)isoxazole-4-carboxylate]
[2]
  IC50: 1 to 10 µM

## Fc1cccc(Cl)c1-c1noc(-c2cnn(-c3cccc(Cl)c3)c2C(F)(F)F)c1-c1nnn[nH]1 [Example I-3, 3-(2-chloro-6-fluorophenyl)-5-(1-(3-chlorophenyl)-5-(trifluoromethyl)-1H-pyrazol-4-yl)-4-(1H-tetrazol-5-yl)isoxazole]
[1]
  IC50: 1 to 10 µM

## O=C(c1c(-c2ccccc2Cl)noc1-c1cnn(-c2cccc(Cl)c2)c1C(F)(F)F)N1CCCO1 [Example B-62, (3-(2-chlorophenyl)-5-(1-(3-chlorophenyl)-5-(trifluoromethyl)-1H-pyrazol-4-yl)isoxazol-4-yl)(isoxazolidin-2-yl)methanone]
[2]
  IC50: 0.01 to 0.1 µM

## COC(=O)c1c(-c2c(F)cccc2Cl)noc1-c1cnn(-c2onc(-c3ccc(Cl)cc3)c2C(=O)OC)c1C(F)(F)F [Example 131, methyl 3-(2-chloro-6-fluorophenyl)-5-{[1-(4-methoxycarbonyl-3-(4-chlorophenyl)isoxazol-5-yl)-5-trifluoromethyl-1H-pyrazol-4-yl]}-isoxazole-4-carboxylate]
[2]
  IC50: 1 to 10 µM

## Fc1cccc(Cl)c1-c1noc(-c2cnn(-c3ccncc3)c2C(F)(F)F)c1-c1cnco1 [IB-33, 3-(2-chloro-6-fluorophenyl)-4-(oxazol-5-yl)-5-(1-(pyridin-4-yl)-5-(trifluoromethyl)-1H-pyrazol-4-yl)isoxazole]
[1]
  IC50: 1 to 10 µM

## Cc1nnc(-c2c(-c3c(F)cccc3Cl)noc2-c2cnn(-c3ccccc3Cl)c2C(F)(F)F)o1 [IB-18, 2-(3-(2-chloro-6-fluorophenyl)-5-(1-(2-chlorophenyl)-5-(trifluoromethyl)-1H-pyrazol-4-yl)isoxazol-4-yl)-5-methyl-1,3,4-oxadiazole]
[1]
  IC50: 1 to 10 µM

## NNC(=O)c1c(-c2cccc(F)c2)noc1-c1cnn(-c2cccc(F)c2)c1C(F)(F)F [Example 134, 3-(3-fluorophenyl)-5-(1-(3-fluorophenyl)-5-(trifluoromethyl)-1H-pyrazol-4-yl)isoxazole-4-carbohydrazide]
[2]
  IC50: 1 to 10 µM

## CCOc1cc(-n2ncc(-c3onc(-c4c(F)cccc4Cl)c3C(=O)OC)c2C(F)(F)F)ncn1 [Example 116, methyl 3-(2-chloro-6-fluorophenyl)-5-(1-(6-ethoxypyrimidin-4-yl)-5-(trifluoromethyl)-1H-pyrazol-4-yl)isoxazole-4-carboxylate]
[2]
  IC50: 1 to 10 µM

## COC(=O)c1c(-c2ccccc2Cl)noc1-c1cnn(-c2cccc(Cl)c2)c1C(F)(F)F [Example B-71, methyl 3-(2-chlorophenyl)-5-(1-(3-chlorophenyl)-5-(trifluoromethyl)-1H-pyrazol-4-yl)isoxazole-4-carboxylate]
[2]
  IC50: < 0.01 µM

## O=C(NCc1ccccc1C(F)(F)F)c1c(-c2c(F)cccc2Cl)noc1-c1cnn(-c2ccccc2F)c1C(F)(F)F [Example 23, 3-(2-chloro-6-fluorophenyl)-5-(1-(2-fluorophenyl)-5-(trifluoromethyl)-1H-pyrazol-4-yl)-N-(2-(trifluoromethyl)benzyl)isoxazole-4-carboxamide]
[2]
  IC50: 1 to 10 µM

## O=C(c1c(-c2c(F)cccc2Cl)noc1-c1cnn(-c2cccnc2)c1C(F)(F)F)N1CCCO1 [Example B-54, (3-(2-chloro-6-fluorophenyl)-5-(1-(pyridin-3-yl)-5-(trifluoromethyl)-1H-pyrazol-4-yl)isoxazol-4-yl)(isoxazolidin-2-yl)methanone]
[2]
  IC50: 1 to 10 µM

## CCOC(=O)c1c(-c2onc(-c3c(F)cccc3Cl)c2C(=O)OC)cnn1-c1cccc(C#N)c1 [Example 13, methyl 3-(2-chloro-6-fluorophenyl)-5-(1-(3-cyanophenyl)-5-(ethoxycarbonyl)-1H-pyrazol-4-yl)isoxazole-4-carboxylate]
[2]
  IC50: 0.1 to 1 µM

## COC(=O)c1c(-c2c(F)cccc2Cl)noc1-c1cnn(-c2cccc(N)c2)c1C(F)(F)F [Example B-92, methyl 5-(1-(3-aminophenyl)-5-trifluoromethyl)-1H-pyrazol-4-yl)-3-(2-chloro-6-fluorophenyl)isoxazole-4-carboxylate]
[2]
  IC50: 0.01 to 0.1 µM

## CCOC(=O)c1c(-c2onc(-c3c(F)cccc3Cl)c2C(=O)OC)cnn1-c1cccc(Cl)c1Cl [Example 9, methyl 3-(2-chloro-6-fluorophenyl)-5-(1-(2,3-dichlorophenyl)-5-(ethoxycarbonyl)-1H-pyrazol-4-yl)isoxazole-4-carboxylate]
[2]
  IC50: 1 to 10 µM

## Fc1cc(F)cc(-n2ncc(-c3onc(-c4c(F)cccc4Cl)c3Br)c2C(F)(F)F)c1 [Example B-27, 4-bromo-3-(2-chloro-6-fluorophenyl)-5-(1-(3,5-difluorophenyl)-5-(trifluoromethyl)-1H-pyrazol-4-yl)isoxazole]
[2]
  IC50: 0.1 to 1 µM

## O=C(c1c(-c2c(F)cccc2Cl)noc1-c1cnn(-c2cccc(F)c2)c1C(F)(F)F)N1CCOCC1 [Example 127, (3-(2-chloro-6-fluorophenyl)-5-(1-(3-fluorophenyl)-5-(trifluoromethyl)-1H-pyrazol-4-yl)isoxazol-4-yl)(morpholino)methanone]
[2]
  IC50: 1 to 10 µM

## CC(C)OC(=O)c1c(-c2c(F)cccc2Cl)noc1-c1cnn(-c2cccnc2)c1C(F)(F)F [Example B-61, isopropyl 3-(2-chloro-6-fluorophenyl)-5-(1-(pyridin-3-yl)-5-(trifluoromethyl)-1H-pyrazol-4-yl)isoxazole-4-carboxylate]
[2]
  IC50: 0.01 to 0.1 µM

## Fc1cccc(-n2ncc(-c3onc(-c4c(F)cccc4Cl)c3-c3nnn[nH]3)c2C(F)(F)F)c1 [Example I-2, 3-(2-chloro-6-fluorophenyl)-5-(1-(3-fluorophenyl)-5-(trifluoromethyl)-1H-pyrazol-4-yl)-4-(1H-tetrazol-5-yl)isoxazole]
[1]
  IC50: 1 to 10 µM

## Fc1cccc(Cl)c1-c1noc(-c2cnn(-c3cccnc3)c2C(F)(F)F)c1-c1cnco1 [IB-32, 3-(2-chloro-6-fluorophenyl)-4-(oxazol-5-yl)-5-(1-(pyridin-3-yl)-5-(trifluoromethyl)-1H-pyrazol-4-yl)isoxazole]
[1]
  IC50: 1 to 10 µM

## COC(=O)c1c(-c2cccc(F)c2)noc1-c1cnn(-c2cccc(F)c2)c1C(F)(F)F [Example 106, methyl 3-(3-fluorophenyl)-5-(1-(3-fluorophenyl)-5-(trifluoromethyl)-1H-pyrazol-4-yl)isoxazole-4-carboxylate]
[2]
  IC50: 1 to 10 µM

## COC(=O)c1c(-c2ccccc2F)noc1-c1cnn(-c2cccc(Cl)c2)c1C(F)(F)F [Example B-77, methyl 5-(1-(3-chlorophenyl)-5-(trifluoromethyl)-1H-pyrazol-4-yl)-3-(2-fluorophenyl)isoxazole-4-carboxylate]
[2]
  IC50: 0.01 to 0.1 µM

## CCOC(=O)c1c(-c2ccccc2Cl)noc1-c1cnn(-c2cccc(Cl)c2)c1C(F)(F)F [Example B-41, ethyl 3-(2-chlorophenyl)-5-(1-(3-chlorophenyl)-5-(trifluoromethyl)-1H-pyrazol-4-yl)-isoxazole-4-carboxylate]
[2]
  IC50: 0.01 to 0.1 µM

## CON(C)C(=O)c1c(-c2ccccc2Cl)noc1-c1cnn(-c2cccc(Cl)c2)c1C(F)(F)F [Example B-64, 3-(2-chlorophenyl)-5-(1-(3-chlorophenyl)-5-(trifluoromethyl)-1H-pyrazol-4-yl)-N-methoxy-N-methylisoxazole-4-carboxamide]
[2]
  IC50: 0.1 to 1 µM

## CSC(=O)c1c(-c2c(F)cccc2Cl)noc1-c1cnn(-c2cccc(F)c2)c1C(F)(F)F [Example 128, S-methyl 3-(2-chloro-6-fluorophenyl)-5-(1-(3-fluorophenyl)-5-(trifluoromethyl)-1H-pyrazol-4-yl)isoxazole-4-carbothioate]
[2]
  IC50: < 0.01 µM
